# Measurements taken from ChEMBL document CHEMBL3045053, “Synthesis of the quinoline-linked triazolopyrimidine analogues and their interactions with the recombinant tobacco acetolactate synthase” (Biochem Biophys Res Commun, 1999).
# Activity calls are given as the source filed them. The calls are words filed in the database; no cut-off is given here.
# Target: Acetolactate synthase (Nicotiana tabacum, UniProt C0L093)
# Assay: Inhibition of wild type Nicotiana tabacum (tobacco) S4-Hra GST-tagged acetolactate synthase mutant expressed in Escherichia coli by modified Westerfeld method
row,SMILES,IC50 [µM]
1,Cc1ccn2nc(S(=O)(=O)Nc3c(F)cccc3F)nc2n1 [FLUMETSULAM],0.939
2,Cc1ccn2nc(S(=O)(=O)Nc3c(F)ccc4cccnc34)nc2n1,16.5
3,Cc1cc(C)n2nc(S(=O)(=O)Nc3c(F)ccc4cccnc34)nc2n1,14.7

# Target: T1, Acetolactate synthase (Nicotiana tabacum, UniProt C0L093)
# T1 sequence (C0L093 whole entry): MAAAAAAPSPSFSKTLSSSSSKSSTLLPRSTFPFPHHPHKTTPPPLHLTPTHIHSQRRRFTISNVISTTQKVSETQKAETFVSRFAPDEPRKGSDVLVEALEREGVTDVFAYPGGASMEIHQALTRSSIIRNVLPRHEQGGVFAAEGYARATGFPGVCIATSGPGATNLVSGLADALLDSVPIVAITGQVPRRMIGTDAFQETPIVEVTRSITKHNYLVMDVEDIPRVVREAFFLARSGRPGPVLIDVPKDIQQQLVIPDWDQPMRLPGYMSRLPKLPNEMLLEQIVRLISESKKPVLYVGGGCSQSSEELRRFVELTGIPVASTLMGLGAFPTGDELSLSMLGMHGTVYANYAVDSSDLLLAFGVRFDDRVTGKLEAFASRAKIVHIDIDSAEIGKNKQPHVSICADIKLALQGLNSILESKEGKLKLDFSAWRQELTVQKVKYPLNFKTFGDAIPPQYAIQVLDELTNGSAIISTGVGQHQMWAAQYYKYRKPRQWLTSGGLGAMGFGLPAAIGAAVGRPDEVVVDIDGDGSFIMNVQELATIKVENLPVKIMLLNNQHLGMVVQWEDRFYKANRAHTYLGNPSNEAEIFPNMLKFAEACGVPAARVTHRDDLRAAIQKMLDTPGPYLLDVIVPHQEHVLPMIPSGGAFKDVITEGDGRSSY
# Assay: Inhibition of wild type Nicotiana tabacum (tobacco) GST-tagged acetolactate synthase expressed in Escherichia coli by modified Westerfeld method
row,SMILES,IC50 [nM]
1,Cc1cc(C)n2nc(S(=O)(=O)Nc3cccc4cccnc34)nc2n1,32.3
2,Cc1ccn2nc(S(=O)(=O)Nc3c(Cl)ccc4cccnc34)nc2n1,37.2
3,Cc1cc(C)n2nc(S(=O)(=O)Nc3c(Br)ccc4cccnc34)nc2n1,8.7
4,Cc1ccn2nc(S(=O)(=O)Nc3c(C#N)ccc4cccnc34)nc2n1,64
5,Cc1cc(C)n2nc(S(=O)(=O)Nc3c(Cl)ccc4cccnc34)nc2n1,9.4
6,Cc1ccn2nc(S(=O)(=O)Nc3c(F)cccc3F)nc2n1 [FLUMETSULAM],31.6
7,Cc1ccn2nc(S(=O)(=O)Nc3c(F)ccc4cccnc34)nc2n1,17.1
8,Cc1ccn2nc(S(=O)(=O)Nc3c(Br)ccc4cccnc34)nc2n1,19.2
9,Cc1cc(C)n2nc(S(=O)(=O)Nc3c(F)ccc4cccnc34)nc2n1,7.7

# Target: T2, Acetolactate synthase (Nicotiana tabacum) (UniProt C0L093)
# T2 sequence (whole entry): T1 sequence (C0L093 whole entry)
# Assay: Inhibition of wild type Nicotiana tabacum (tobacco) GST-tagged acetolactate synthase expressed in Escherichia coli at 1 mM by modified Westerfeld method
row,SMILES,inhibition
1,Cc1cc(C)n2nc(S(=O)(=O)Nc3cccc4ncccc34)nc2n1,inactive
2,Cc1cc(C)n2nc(S(=O)(=O)Nc3nccc4ccccc34)nc2n1,inactive
3,Cc1ccn2nc(S(=O)(=O)Nc3cccc4ncccc34)nc2n1,inactive
4,Cc1cc(C)n2nc(S(=O)(=O)Nc3cccc4cnccc34)nc2n1,inactive
5,Cc1ccn2nc(S(=O)(=O)Nc3nccc4ccccc34)nc2n1,inactive
6,Cc1ccn2nc(S(=O)(=O)Nc3cccc4cnccc34)nc2n1,inactive
